Measurements published in ChEMBL document CHEMBL1157938, “Cytotoxicity and inhibition of DNA topoisomerase I of polyhydroxylated triterpenoids and triterpenoid glycosides” (Bioorg Med Chem Lett, 2010).
Calls of active or inactive are those of the source. No cut-off for these calls is given here.

Legend:
[1] = test system: PANC-1; experiment: Cytotoxicity against human PANC1 cells after 48 hrs by WST8 assay; format: functional; conditions: PANC-1, 48 h
[2] = test system: HL-60; experiment: Cytotoxicity against human HL60 cells after 48 hrs by WST8 assay; format: functional; conditions: HL-60, 48 h
[3] = Cytotoxicity against human MRC5 cells after 48 hrs by WST8 assay; format: cell-based
[4] = test system: A549; experiment: Cytotoxicity against human A549 cells after 48 hrs by WST8 assay; format: functional; conditions: A549, 48 h
[5] = test system: PC-3; experiment: Cytotoxicity against human PC3 cells after 48 hrs by WST8 assay; format: functional; conditions: PC-3, 48 h
[6] = biological target: T1, DNA topoisomerase 1 (Homo sapiens, UniProt P11387); experiment: Inhibition of human DNA topoisomerase 1-mediated relaxation of supercoiled DNA by gel electrophoresis
T1 sequence (P11387 whole entry): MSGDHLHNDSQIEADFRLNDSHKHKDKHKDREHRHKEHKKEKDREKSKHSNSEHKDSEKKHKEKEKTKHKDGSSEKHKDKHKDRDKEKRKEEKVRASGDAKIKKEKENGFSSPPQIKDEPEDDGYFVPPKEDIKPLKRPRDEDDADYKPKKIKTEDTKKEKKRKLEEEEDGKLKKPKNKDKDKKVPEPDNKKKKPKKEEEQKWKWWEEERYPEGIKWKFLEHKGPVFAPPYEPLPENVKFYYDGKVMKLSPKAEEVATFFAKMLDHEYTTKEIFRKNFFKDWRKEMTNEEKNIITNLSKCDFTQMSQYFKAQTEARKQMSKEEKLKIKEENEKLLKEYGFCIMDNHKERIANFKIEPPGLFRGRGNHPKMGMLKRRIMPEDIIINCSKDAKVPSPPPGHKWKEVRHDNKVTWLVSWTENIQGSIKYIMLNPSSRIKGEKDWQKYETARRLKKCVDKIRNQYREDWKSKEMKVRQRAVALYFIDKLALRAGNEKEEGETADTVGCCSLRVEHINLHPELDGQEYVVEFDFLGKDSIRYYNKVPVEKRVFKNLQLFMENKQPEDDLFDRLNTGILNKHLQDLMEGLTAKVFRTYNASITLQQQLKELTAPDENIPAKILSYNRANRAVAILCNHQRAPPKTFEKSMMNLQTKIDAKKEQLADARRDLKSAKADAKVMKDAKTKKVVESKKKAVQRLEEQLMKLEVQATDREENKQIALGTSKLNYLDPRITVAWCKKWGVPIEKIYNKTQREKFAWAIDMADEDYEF

[7] = biological target: DNA topoisomerase 2-alpha (Homo sapiens, UniProt P11388); experiment: Inhibition of human DNA topoisomerase 2-mediated relaxation of supercoiled DNA by gel electrophoresis
DNA topoisomerase 2-alpha, sequence (P11388 whole entry): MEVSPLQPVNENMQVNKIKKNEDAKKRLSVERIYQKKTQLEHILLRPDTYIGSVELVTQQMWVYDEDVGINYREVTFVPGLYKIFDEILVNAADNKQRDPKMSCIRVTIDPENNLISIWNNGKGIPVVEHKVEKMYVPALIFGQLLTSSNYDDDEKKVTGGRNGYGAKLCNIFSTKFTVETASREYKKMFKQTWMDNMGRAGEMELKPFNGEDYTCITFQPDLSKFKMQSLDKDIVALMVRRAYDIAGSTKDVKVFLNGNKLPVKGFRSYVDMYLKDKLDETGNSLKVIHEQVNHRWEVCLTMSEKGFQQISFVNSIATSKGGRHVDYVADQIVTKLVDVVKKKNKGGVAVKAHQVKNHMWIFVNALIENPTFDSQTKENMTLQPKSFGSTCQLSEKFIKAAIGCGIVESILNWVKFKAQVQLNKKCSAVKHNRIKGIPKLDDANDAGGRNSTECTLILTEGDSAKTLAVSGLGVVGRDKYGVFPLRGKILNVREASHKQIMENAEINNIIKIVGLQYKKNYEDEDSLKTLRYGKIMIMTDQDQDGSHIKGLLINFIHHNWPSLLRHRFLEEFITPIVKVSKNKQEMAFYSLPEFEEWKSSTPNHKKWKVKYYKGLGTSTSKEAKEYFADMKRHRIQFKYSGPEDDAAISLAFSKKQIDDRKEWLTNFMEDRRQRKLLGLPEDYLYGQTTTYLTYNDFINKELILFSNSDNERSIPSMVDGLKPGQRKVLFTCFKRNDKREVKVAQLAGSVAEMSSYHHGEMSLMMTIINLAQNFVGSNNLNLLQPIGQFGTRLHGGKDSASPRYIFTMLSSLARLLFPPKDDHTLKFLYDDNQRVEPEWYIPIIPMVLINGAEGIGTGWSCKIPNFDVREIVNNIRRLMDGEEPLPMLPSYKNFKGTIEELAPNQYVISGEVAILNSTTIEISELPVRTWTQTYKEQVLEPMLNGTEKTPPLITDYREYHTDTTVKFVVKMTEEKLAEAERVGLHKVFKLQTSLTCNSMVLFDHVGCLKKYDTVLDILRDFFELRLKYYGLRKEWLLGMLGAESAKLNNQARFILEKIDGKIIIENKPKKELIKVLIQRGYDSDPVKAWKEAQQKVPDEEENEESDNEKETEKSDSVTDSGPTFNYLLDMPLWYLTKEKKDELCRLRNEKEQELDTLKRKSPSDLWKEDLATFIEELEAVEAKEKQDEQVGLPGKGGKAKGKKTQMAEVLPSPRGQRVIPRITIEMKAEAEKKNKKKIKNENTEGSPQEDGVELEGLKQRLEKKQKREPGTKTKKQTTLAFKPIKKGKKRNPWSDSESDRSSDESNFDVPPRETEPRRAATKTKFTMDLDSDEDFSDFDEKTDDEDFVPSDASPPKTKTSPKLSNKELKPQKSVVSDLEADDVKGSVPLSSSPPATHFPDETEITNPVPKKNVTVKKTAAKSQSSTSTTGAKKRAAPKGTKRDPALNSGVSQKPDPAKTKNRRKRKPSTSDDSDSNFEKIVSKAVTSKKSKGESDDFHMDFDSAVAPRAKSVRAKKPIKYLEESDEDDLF

[8] = test system: HL-60; experiment: Cytotoxicity against human HL60 cells at 25 uM after 48 hrs by WST8 assay; format: functional, cell-based
[9] = test system: PC-3; experiment: Cytotoxicity against human PC3 cells at 25 uM after 48 hrs by WST8 assay; format: functional, cell-based
[10] = test system: A549; experiment: Cytotoxicity against human A549 cells at 25 uM after 48 hrs by WST8 assay; format: functional, cell-based
[11] = test system: MRC5; experiment: Cytotoxicity against human MRC5 cells at 25 uM after 48 hrs by WST8 assay; format: cell-based; conditions: mrc5, 48 h
[12] = test system: PANC-1; experiment: Cytotoxicity against human PANC1 cells at 25 uM after 48 hrs by WST8 assay; format: functional, cell-based

IC50 [6] [µM]	IC50 [7] [µM]	SMILES	GI50 [1] [µM]	GI50 [2] [µM]	GI50 at 48 h [3] [µM]	GI50 [4] [µM]	GI50 [5] [µM]	growth inhibition (GI) [8]	growth inhibition (GI) [9]	growth inhibition (GI) [10]	growth inhibition (GI) [11]	growth inhibition (GI) [12]
> 250	> 250	C/C=C(/C)C(=O)O[C@H]1[C@H](OC(=O)C(C)CC)[C@]2(CO)[C@H](O)C[C@]3(C)C(=CC[C@@H]4[C@@]5(C)CC[C@H](O)C(C)(C)[C@@H]5CC[C@]43C)[C@@H]2CC1(C)C (some centres not stated)	9.6	4.6	3.67	1.7	4.11					
> 250	> 250	C/C=C(/C)C(=O)O[C@H]1[C@H](OC(=O)C(C)C)[C@]2(CO)[C@H](O)C[C@]3(C)C(=CC[C@@H]4[C@@]5(C)CC[C@H](O)[C@](C)(CO)[C@@H]5CC[C@]43C)[C@@H]2CC1(C)C	8	2.53	2.71	3.81	2.34					
> 250	> 250	C/C=C(/C)C(=O)O[C@H]1[C@H](O)[C@]2(CO)[C@H](O)C[C@]3(C)C(=CC[C@@H]4[C@@]5(C)CC[C@H](O)[C@](C)(CO)[C@@H]5CC[C@]43C)[C@@H]2CC1(C)C	11.9		18.1	2.45	2.23	inactive				
> 250	> 250	C[C@H]1[C@H](C)CC[C@]2(C)CC[C@]3(C)C(=CC[C@@H]4[C@@]5(C)CC[C@H](O)C(C)(C)[C@@H]5CC[C@]43C)[C@H]12	12.8			10.5	7.66	inactive				
		C/C=C(\C)C(=O)O[C@H]1[C@H](OC(C)=O)[C@]2(CO)[C@H](O)C[C@]3(C)C(=CC[C@@H]4[C@@]5(C)CC[C@H](O[C@@H]6O[C@H](C(=O)O)[C@@H](O)[C@H](O[C@@H]7O[C@@H](CO)[C@H](O)[C@H]7O)[C@H]6O[C@@H]6O[C@H](CO)[C@@H](O)[C@H](O)[C@H]6O)[C@](C)(CO)[C@@H]5CC[C@]43C)[C@@H]2CC1(C)C [AESCULIOSIDE IIH]						inactive	inactive	inactive	Not Active	inactive
> 250	> 250	C/C=C(\C)C(=O)O[C@H]1[C@H](OC(C)=O)[C@]2(CO)[C@H](O)C[C@]3(C)C(=CC[C@@H]4[C@@]5(C)CC[C@H](O[C@@H]6O[C@H](C(=O)O)[C@@H](O)[C@H](O[C@@H]7O[C@@H](CO)[C@H](O)[C@H]7O)[C@H]6O[C@@H]6O[C@H](CO)[C@H](O)[C@H](O)[C@H]6O)C(C)(C)[C@@H]5CC[C@]43C)[C@@H]2CC1(C)C [AESCULIOSIDE IIJ]	21.9		17.3	21.8	13.8	inactive				
		CC1(C)C[C@H]2C3=CC[C@@H]4[C@@]5(C)CC[C@H](O)C(C)(C)[C@@H]5CC[C@@]4(C)[C@]3(C)C[C@@H](O)[C@@]2(CO)[C@@H](O)[C@@H]1O [BARRINGTOGENOL C]						inactive	inactive	inactive	Not Active	inactive
		CC1(C)CC[C@]2(C(=O)O[C@@H]3O[C@H](CO)[C@@H](O)[C@H](O)[C@H]3O)CC[C@]3(C)C(=CC[C@@H]4[C@@]5(C)CC[C@H](O[C@@H]6O[C@H](C(=O)O)[C@@H](O)[C@H](O)[C@H]6O)C(C)(C)[C@@H]5CC[C@]43C)[C@@H]2C1 [CHIKUSETSUSAPONIN IVA]						inactive	inactive	inactive	Not Active	inactive
		C[C@@H]1[C@@H](O)[C@H](O)[C@@H](O[C@H]2CC(C)(C)C[C@H]3C4=CC[C@@H]5[C@@]6(C)CC[C@H](O[C@@H]7O[C@H](CO)[C@@H](O)[C@H](O)[C@H]7O[C@@H]7O[C@H](CO)[C@@H](O)[C@H](O)[C@H]7O[C@@H]7O[C@H](CO)[C@@H](O)[C@H](O)[C@H]7O)C(C)(C)[C@@H]6CC[C@@]5(C)[C@]4(C)C[C@@H](O)[C@@]23CO)O[C@H]1CO [ERYNGIOSIDE A]						inactive	inactive	inactive	Not Active	inactive
		C[C@@H]1[C@@H](O)[C@H](O)[C@@H](O[C@H]2CC(C)(C)C[C@H]3C4=CC[C@@H]5[C@@]6(C)CC[C@H](O[C@@H]7O[C@H](CO)[C@@H](O)[C@H](O)[C@H]7O[C@@H]7O[C@H](CO)[C@@H](O)[C@H](O)[C@H]7O[C@@H]7O[C@H](CO)[C@H](O)[C@H](O)[C@H]7O)C(C)(C)[C@@H]6CC[C@@]5(C)[C@]4(C)C[C@@H](O)[C@@]23CO)O[C@H]1CO [ERYNGIOSIDE B]						inactive	inactive	inactive	Not Active	inactive
		C[C@@H]1[C@@H](O)[C@H](O)[C@@H](O[C@H]2CC(C)(C)C[C@H]3C4=CC[C@@H]5[C@@]6(C)CC[C@H](O[C@@H]7O[C@H](CO)[C@@H](O)[C@H](O)[C@H]7O[C@@H]7O[C@H](CO)[C@@H](O)[C@H](O)[C@H]7O[C@@H]7O[C@H](CO)[C@@H](O)[C@H](O)[C@H]7O)C(C)(C)[C@@H]6CC[C@@]5(C)[C@]4(C)CC(=O)[C@@]23CO)O[C@H]1CO [ERYNGIOSIDE C]						inactive	inactive	inactive	Not Active	inactive
> 250	> 250	C/C=C(/C)C(=O)O[C@H]1[C@H](O)C(C)(C)C[C@H]2C3=CC[C@@H]4[C@@]5(C)CC[C@H](O[C@@H]6O[C@H](C(=O)O)[C@@H](O)[C@H](O[C@@H]7OC[C@@H](O)[C@H](O)[C@H]7O)[C@H]6O[C@@H]6O[C@H](CO)[C@@H](O)[C@H](O)[C@H]6O)C(C)(C)[C@@H]5CC[C@@]4(C)[C@]3(C)[C@@H](O)[C@@H](O)[C@]21CO [ERYNGIOSIDE E]						inactive	inactive	inactive	Not Active	inactive
> 250	> 250	C/C=C(/C)C(=O)O[C@H]1[C@H](O)C(C)(C)C[C@H]2C3=CC[C@@H]4[C@@]5(C)CC[C@H](O[C@@H]6O[C@H](C(=O)O)[C@@H](O)[C@H](O[C@@H]7OC[C@@H](O)[C@H](O)[C@H]7O)[C@H]6O[C@@H]6O[C@H](CO)[C@@H](O)[C@H](O)[C@H]6O)C(C)(C)[C@@H]5CC[C@@]4(C)[C@]3(C)C[C@@H](O)[C@]21CO [ERYNGIOSIDE F]						inactive	inactive	inactive	Not Active	inactive

SMILES	IC50 [6] [µM]	IC50 [7] [µM]	GI50 [1] [µM]	GI50 [2] [µM]	GI50 at 48 h [3] [µM]	GI50 [4] [µM]	GI50 [5] [µM]	growth inhibition (GI) [8]	growth inhibition (GI) [9]	growth inhibition (GI) [10]	growth inhibition (GI) [11]	growth inhibition (GI) [12]
C/C=C(\C)C(=O)O[C@H]1[C@H](OC(C)=O)[C@]2(CO)[C@H](O)[C@H](O)[C@]3(C)C(=CC[C@@H]4[C@@]5(C)CC[C@H](O[C@@H]6O[C@H](C(=O)O)[C@@H](O)[C@H](O[C@@H]7O[C@@H](CO)[C@H](O)[C@H]7O)[C@H]6O[C@@H]6O[C@H](CO)[C@H](O)[C@H](O)[C@H]6O)C(C)(C)[C@@H]5CC[C@]43C)[C@@H]2CC1(C)C [AESCULIOSIDE IIF]	> 250	> 250						inactive	inactive	inactive	Not Active	inactive
C/C=C(/C)C(=O)O[C@H]1[C@H](OC(C)=O)[C@]2(CO)[C@H](O)[C@H](O)[C@]3(C)C(=CC[C@@H]4[C@@]5(C)CC[C@H](O[C@@H]6O[C@H](C(=O)O)[C@@H](O)[C@H](O[C@@H]7O[C@@H](CO)[C@H](O)[C@H]7O)[C@H]6O[C@@H]6O[C@H](CO)[C@H](O)[C@H](O)[C@H]6O)C(C)(C)[C@@H]5CC[C@]43C)[C@@H]2CC1(C)C [AESCULIOSIDE IIG]	> 250	> 250						inactive	inactive	inactive	Not Active	inactive
